Data: patent US20220106289A1, “NLRP3 INHIBITORS” (INFLAZOME LIMITED, priority 2018, published 2022)
Where a name gives a salt, the structure may show the parent alone. Read-outs that look alike come from different tables or passages of the source.

How the values were obtained:
[1] = PK in rats, intravenous administration; type: in vivo; details: male, Sprague-Dawley; for AUC / half-life: rat plasma; for clearance / Vd: plasma, rat; for Vd: read-out: Vdss
Method: (§1) Pharmacokinetic parameters were determined in male Sprague Dawley rats (Charles River, UK, 250-300 g; or Vital River Laboratory Animal Technology Co Ltd, Beijing, China, 7-9 weeks old). Animals were individually housed during the study and maintained under a 12 h light/dark cycle. Animals had free access to food and water, except that orally dosed animals were food deprived overnight prior to the study. For intravenous administration, compounds were formulated as a solution in DMSO:PBS [10:90] in 2 mL/kg dosing volume and administered via tail vein. For oral administration, compounds were formulated as a solution in DMSO:water [10:90] in 5 mL/kg dosing volume and administered orally. Serial blood samples (about 200-230 μL) were taken from each animal at each of 8 time-points post dose (0.083, 0.25, 0.5, 1, 2, 4, 8 and 24 h). Samples were held on ice for no longer than 30 minutes before centrifugation (10,000 rpm (8,385 g) for 3 minutes; or 5,696 rpm (3,000 g) for 15 minutes) for plasma generation. Plasma was frozen on dry ice prior to bioanalysis. PK parameters were generated from LC-MS/MS data using Dotmatics or Phoenix WinNonlin 6.3 software.

[2] = PK in rats, oral administration; type: in vivo; details: male, Sprague-Dawley; for AUC / Cmax / Tmax / half-life: rat plasma; for CL/F / bioavailability: plasma, rat
Method: as §1

[3] = molecular target: T1, NLRP3 (Homo sapiens, UniProt Q96P20); assay: THP-1 cells pyroptosis assay (LPS + nigericin, resazurin read-out); type: cell-based; set-up: Seed THP-1 cells (25,000 cells/well) containing 1.0 μg/ml LPS; host or cells: THP-1 cells; details: NLRP3 inhibitory activity, 1 μg/ml LPS, 5 μM nigericin
Summary of the method: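 THP-1 cells in serum-free RPMI were primed with 1 μg/ml LPS and incubated 3 h at 37° C with compound, then given 5 μM nigericin for 1 h. After supernatant removal, viability was read by 100 μM resazurin over 1-2 h at 37° C.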

[4] = molecular target: T1, NLRP3; assay: Human whole blood IL-1β release assay (LPS + nigericin, AlphaLisa); type: cell-based; set-up: Human whole blood in Li-heparin tubes was obtained from healthy donors; from tissue; host or cells: human whole blood from healthy donors; details: NLRP3 inhibitory activity, 1 μg/ml LPS, 10 μM nigericin, read-out: HWB IC50
Method: For systemic delivery, the ability to inhibit NLRP3 when the compounds are present within the bloodstream is of great importance. For this reason, the NLRP3 inhibitory activity of a number of compounds in human whole blood was investigated in accordance with the following protocol. Human whole blood in Li-heparin tubes was obtained from healthy donors from a volunteer donor panel. • 1. […] Incubate for 3 hrs at 37° C., 5% CO2 • 4. Add 10 μl nigericin (Sigma #N7143) (10 μM FAC) to all wells • 5. Incubate for 1 hr at 37° C., 5% CO2 • 6. At the end of the incubation period, spin plates at 300×g for 5 mins to pellet cells and remove 20 μl of supernatant and add to 96-well v-bottom plates for IL-1β analysis (note: these plates containing the supernatants can be stored at -80° C. to be analysed at a later date) • 7. IL-1β was measured according to the manufacturer protocol (Perkin Elmer-AlphaLisa IL-1 Kit A[…]-5000) • 8.

T1 sequence (Q96P20 whole entry): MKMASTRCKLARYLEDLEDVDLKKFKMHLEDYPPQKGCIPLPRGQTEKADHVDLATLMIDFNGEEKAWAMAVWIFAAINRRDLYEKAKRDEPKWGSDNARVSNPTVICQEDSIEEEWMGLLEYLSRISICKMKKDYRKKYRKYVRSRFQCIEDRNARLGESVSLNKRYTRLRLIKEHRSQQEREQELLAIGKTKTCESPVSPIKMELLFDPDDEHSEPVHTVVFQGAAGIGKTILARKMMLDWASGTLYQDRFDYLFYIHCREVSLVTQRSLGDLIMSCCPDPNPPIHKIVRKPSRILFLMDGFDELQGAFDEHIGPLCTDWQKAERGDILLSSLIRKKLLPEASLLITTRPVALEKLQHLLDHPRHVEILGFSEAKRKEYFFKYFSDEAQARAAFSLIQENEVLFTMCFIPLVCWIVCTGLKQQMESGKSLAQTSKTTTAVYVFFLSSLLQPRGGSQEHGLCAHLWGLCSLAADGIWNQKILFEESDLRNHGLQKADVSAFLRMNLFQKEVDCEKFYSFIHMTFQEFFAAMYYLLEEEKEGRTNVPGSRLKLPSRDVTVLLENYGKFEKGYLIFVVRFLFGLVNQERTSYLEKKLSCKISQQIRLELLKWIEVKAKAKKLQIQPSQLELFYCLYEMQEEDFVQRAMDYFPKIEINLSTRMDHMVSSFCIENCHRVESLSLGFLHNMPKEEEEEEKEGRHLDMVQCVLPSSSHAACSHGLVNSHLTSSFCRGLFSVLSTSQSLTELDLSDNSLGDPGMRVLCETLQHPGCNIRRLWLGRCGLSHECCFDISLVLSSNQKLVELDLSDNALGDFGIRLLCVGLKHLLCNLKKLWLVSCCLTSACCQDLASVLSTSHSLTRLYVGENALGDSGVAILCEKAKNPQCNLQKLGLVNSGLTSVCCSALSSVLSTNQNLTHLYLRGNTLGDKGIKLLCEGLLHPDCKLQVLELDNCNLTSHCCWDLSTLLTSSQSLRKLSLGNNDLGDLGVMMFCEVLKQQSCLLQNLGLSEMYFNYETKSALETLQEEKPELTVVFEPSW

Structure (SMILES) | AUC ([1]; 1 mg/kg) [ng·h/mL] | half-life ([1]; 1 mg/kg) [min] | clearance ([1]; 1 mg/kg) [mL/min/kg] | Vd ([1]; 1 mg/kg) [L/kg] | IC50 [3] [nM] | IC50 [4] [nM] | other results
COC(C)(C)c1cc(S(=O)(=O)NC(=O)Nc2c(C(C)C)cc(Cl)cc2C(C)C)nn1C [Example 83, N-((4-Chloro-2,6-diisopropylphenyl)carbamoyl)-5-(2-methoxypropan-2-yl)-1-methyl-1H-pyrazole-3-sulfonamide] | 1130 | 234 | 14.8 | 2.23 | < 250 | 1000 to 5000 | AUC ([2]; 1.3 mg/kg): 2750 ng·h/mL; Cmax ([2]; 1.3 mg/kg): 468 ng/mL; Tmax ([2]; 1.3 mg/kg): 3.17 h; half-life ([2]; 1.3 mg/kg): 222 min; CL/F ([2]; 1.3 mg/kg): 8.5 mL/min/kg; bioavailability ([2]; 1.3 mg/kg): > 100%
CCn1ccc(S(=O)(=O)NC(=O)Nc2c3c(cc4c2CCC4)CCC3)n1 [Example 45, 1-Ethyl-N-((1,2,3,5,6,7-hexahydro-s-indacen-4-yl)carbamoyl)-1H-pyrazole-3-sulfonamide, sodium salt] |  |  |  |  | < 250 | 1000 to 5000 | AUC ([2]; 3 mg/kg): 61600 ng·h/mL; Cmax ([2]; 3 mg/kg): 7900 ng/mL; Tmax ([2]; 3 mg/kg): 2 h; half-life ([2]; 3 mg/kg): 150 min; CL/F ([2]; 3 mg/kg): 0.8 mL/min/kg
[2H]C([2H])([2H])C([2H])(n1ccc(S(=O)(=O)NC(=O)Nc2c3c(cc4c2CCC4)CCC3)n1)C([2H])([2H])[2H] [Example 20, N-((1,2,3,5,6,7-Hexahydro-s-indacen-4-yl)carbamoyl)-1-(propan-2-yl-d7)-1H-pyrazole-3-sulfonamide, potassium salt] | 21600 | 282 | 0.8 | 0.25 |  |  | 
CC(C)n1cnc(S(=O)(=O)NC(=O)Nc2c3c(cc4c2CCC4)CCC3)n1 [Example 46, N-((1,2,3,5,6,7-Hexahydro-s-indacen-4-yl)carbamoyl)-1-isopropyl-1H-1,2,4-triazole-3-sulfonamide, sodium salt] | 10000 | 240 | 1.7 | 0.45 | 250 to 500 | 500 to 1000 | 
COC(C)(C)c1cc(S(=O)(=O)NC(=O)Nc2c3c(cc4c2CCC4)CCC3)nn1C [Example 39, N-((1,2,3,5,6,7-Hexahydro-s-indacen-4-yl)carbamoyl)-5-(2-methoxypropan-2-yl)-1-methyl-1H-pyrazole-3-sulfonamide] |  |  |  |  | < 250 | 500 to 1000 | AUC ([1]; 3 mg/kg): 3840 ng·h/mL; half-life ([1]; 3 mg/kg): 240 min; clearance ([1]; 3 mg/kg): 13.1 mL/min/kg; Vd ([1]; 3 mg/kg): 0.9 L/kg; AUC ([2]; 3 mg/kg): 3920 ng·h/mL; Cmax ([2]; 3 mg/kg): 1370 ng/mL; Tmax ([2]; 3 mg/kg): 0.83 h; half-life ([2]; 3 mg/kg): 132 min; CL/F ([2]; 3 mg/kg): 13 mL/min/kg; bioavailability ([2]; 3 mg/kg): > 100%
COC1(c2cc(S(=O)(=O)NC(=O)Nc3c4c(cc5c3CCC5)CCC4)nn2C)CCC1 [Example 51, N-((1,2,3,5,6,7-Hexahydro-s-indacen-4-yl)carbamoyl)-5-(1-methoxycyclobutyl)-1-methyl-1H-pyrazole-3-sulfonamide] | 4870 | 60 | 3.4 | 0.29 | < 250 | 250 to 500 | 
COC(C)(C)c1cc(S(=O)(=O)NC(=O)Nc2c(C(C)C)cc(F)cc2C(C)C)nn1C [Example 82, N-((4-Fluoro-2,6-diisopropylphenyl)carbamoyl)-5-(2-methoxypropan-2-yl)-1-methyl-1H-pyrazole-3-sulfonamide] |  |  |  |  | 250 to 500 | 500 to 1000 | 
CC(C)c1cc(F)cc(C(C)C)c1NC(=O)NS(=O)(=O)c1ccn(C(C)C)n1 [Example 77, N-((4-Fluoro-2,6-diisopropylphenyl)carbamoyl)-1-isopropyl-1H-pyrazole-3-sulfonamide, sodium salt] |  |  |  |  | 1000 to 5000 | 5000 to 10000 | 
COC1(c2cc(S(=O)(=O)NC(=O)Nc3c4c(cc5c3CCC5)CCC4)nn2C)CCCC1 [Example 52, N-((1,2,3,5,6,7-hexahydro-s-indacen-4-yl)carbamoyl)-5-(1-methoxycyclopentyl)-1-methyl-1H-pyrazole-3-sulfonamide] |  |  |  |  | < 250 | 500 to 1000 | 
CC(C)c1cccc(C(C)C)c1NC(=O)NS(=O)(=O)c1cnn(C(C)C)c1 [Example 69, N-((2,6-Diisopropylphenyl)carbamoyl)-1-isopropyl-1H-pyrazole-4-sulfonamide] |  |  |  |  | 500 to 1000 | 1000 to 5000 | 
CC(C)n1ccc(S(=O)(=O)NC(=O)Nc2c3c(cc4c2CCC4O)CCC3)n1 (stereo not shown) [Example 21, N-((1-Hydroxy-1,2,3,5,6,7-hexahydro-s-indacen-4-yl)carbamoyl)-1-isopropyl-1H-pyrazole-3-sulfonamide] |  |  |  |  | 5000 to 10000 | 5000 to 10000 | 
O=C(Nc1c2c(cc3c1CCC3)CCC2)NS(=O)(=O)c1ccn(CC(F)(F)F)n1 [Example 42, N-((1,2,3,5,6,7-Hexahydro-s-indacen-4-yl)carbamoyl)-1-(2,2,2-trifluoroethyl)-1H-pyrazole-3-sulfonamide] |  |  |  |  | < 250 | 1000 to 5000 | 
O=C(Nc1c2c(cc3c1CCC3)CCC2)NS(=O)(=O)c1ccn(C2CCC2)n1 [Example 59, 1-Cyclobutyl-N-((1,2,3,5,6,7-hexahydro-s-indacen-4-yl)carbamoyl)-1H-pyrazole-3-sulfonamide] |  |  |  |  | < 250 | 1000 to 5000 | 
